Literature values in patent US7749527B2, “Gel compositions for control of ecto-parasites” (Wyeth LLC, priority 2005, dated 2010).

Test system: fleas and ticks
Settings: companion animals

In the case of `N#Cc1ccc(CC(=NNC(=O)Nc2ccc(OC(F)(F)F)cc2)c2cccc(C(F)(F)F)c2)cc1` [Metaflumizone, (E Z)-2-[2-(4-cyanophenyl)-1-[3-(trifluoromethyl)phenyl]ethylidene]-N-[4-(trifluoromethoxy)phenyl]hydrazinecarboxamide], the “protection from fleas and ticks” value is listed as 4-6 weeks.
